Target: T1, RIPK1 (Homo sapiens, UniProt Q13546)
T1 construct: intracellular RIPK1 and its phosphorylation during the process of inducing programmed necrosis of HT29 cells; endogenous in cells; host or cells: HT29 cells
T1 sequence (Q13546 1-671): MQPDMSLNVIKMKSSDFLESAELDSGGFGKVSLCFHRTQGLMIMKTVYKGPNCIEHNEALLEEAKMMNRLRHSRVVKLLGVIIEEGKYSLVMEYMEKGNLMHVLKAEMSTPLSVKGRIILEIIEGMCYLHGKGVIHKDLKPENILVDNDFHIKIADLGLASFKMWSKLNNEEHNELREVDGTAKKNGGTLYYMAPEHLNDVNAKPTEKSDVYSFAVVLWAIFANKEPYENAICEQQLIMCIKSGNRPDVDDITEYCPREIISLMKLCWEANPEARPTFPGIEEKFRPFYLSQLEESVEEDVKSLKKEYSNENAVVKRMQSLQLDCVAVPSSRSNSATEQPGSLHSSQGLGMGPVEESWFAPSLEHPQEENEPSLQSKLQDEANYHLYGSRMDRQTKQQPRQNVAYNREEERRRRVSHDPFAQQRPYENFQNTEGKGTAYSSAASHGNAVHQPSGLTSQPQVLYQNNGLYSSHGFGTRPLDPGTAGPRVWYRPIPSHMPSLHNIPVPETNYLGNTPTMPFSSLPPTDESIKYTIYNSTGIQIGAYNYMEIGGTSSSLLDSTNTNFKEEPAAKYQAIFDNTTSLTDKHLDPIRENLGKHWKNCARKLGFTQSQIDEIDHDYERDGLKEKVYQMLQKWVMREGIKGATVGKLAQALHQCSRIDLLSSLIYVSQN
Assay: Western Blot detection of inhibition of RIPK1 phosphorylation in HT29 cells
Assay type: cell-based
Conditions: Z-VAD-FMK/TNF-α/AT-406 induction, 7 hours
Protocol: In this assay, Western blot was used to detect the effect of the test compound on intracellular RIPK1 and its phosphorylation during the process of inducing programmed necrosis of HT29 cells to verify the inhibitory effect of the compound on RIPK1 phosphorylation.
a) HT29 cells in good condition were collected, resuspended in McCoy's 5A complete medium and counted. The cells were seeded in a 12-well plate at a cell density of 1×10 6/1 mL/well, and placed in a 37° C. cell culture incubator overnight.
b) Z-VAD-FMK (at final concentration of 20 μM) was added to the above 12-well plate. After 30 minutes, the inducer (where the final concentration of TNF-α was 20 ng/mL, and the final concentration of AT-406 was 100 nM), and the test compound of different concentrations was then added, and incubated in a cell incubator at 37° C. for 7 hours.
c) Preparation of complete lysate: A tube of aliquoted RIPA lysate was thawed, and then phosphatase inhibitor and Roche protease inhibitor were added respectively (phosphatase inhibitor: RIPA=1:100; Roche protease inhibitor: RIPA=4:100); the mixture was placed on ice for later use; […]
g) The BCA kit was used for detection and the protein concentration was calculated; […]
7. […] The membrane was cut according to the molecular weight of the protein to be detected based on the marker band indication. […]

With `O=C(C1CCN(c2cc(-c3cc(OCCCO)ccc3F)ccn2)CC1)N1N=CC[C@H]1c1cc(F)cc(F)c1` (racemic) [Example 40] the “effect on RIPK1 total protein” value was “no obvious inhibitory effect on RIPK1” and the “inhibition of RIPK1 phosphorylation (Western Blot, ratio to total RIPK1)” value was “directly inhibits the phosphorylation activity of RIPK1 and shows a dose-dependent relationship”.

Reference: US20250074892A1, “CARBONYL BRIDGED HETEROCYCLIC COMPOUND, AND COMPOSITION AND APPLICATION THEREOF” (BEIJING SCITECH-MQ PHARMACEUTICALS LIMITED, priority 2022, published 2025)
